In US20110077206A1, “USE OF HNF4ALPHA FOR TREATMENT OF HUMAN MALIGNANT SOLID TUMORS THROUGH INDUCTION-DIFFERENTIATION THERAPY” (SECOND MILITARY MEDICAL UNIVERSITY, priority 2008, published 2011):

Columns and labels:
[1] = test system: solid tumors; assay: In vivo study of control substances on solid tumor differentiation; conditions: background statement of inventors' study
[2] = test system: Human hepatoma cell lines HepG2 and Hep3B; assay: Flow cytometry of CD133+ cell proportion; assay type: cell-based; conditions: data not shown
Experimental: 1. […] After 24 hrs, the medium was replaced with fresh DMEM culture solution containing 10% FBS. After three days, the cells were collected, and the CD133/1-PE (Miltenyi Biotec, Auburn, Calif.) was used as primary antibody for incubation, and the proportion of CD133+ cells was determined by flow cytometry.

[3] = test system: Human hepatoma cell lines HepG2 and Hep3B; assay: In vitro effects of control substances on hepatoma cell lines (RT-PCR, immunohistochemistry, morphology); assay type: cell-based; conditions: for regulation effect on in vitro differentiation of hepatocellular carcinoma cell lines: background statement of inventors' study; for apoptosis / proliferation: HepG2 and Hep3B
Experimental: Human hepatoma cell lines HepG2 and Hep3B were inoculated onto the six-well plate with a concentration of 5×10^5 cells/dish, and the all-trans retinoic acid, somatostatin, tumor necrosis factor, and arsenic trioxide were added respectively. The total RNA was extracted by Trizol kit, and reverse transcriptase reaction was carried out for 2 hrs. 1 μl diluted reverse transcription product was taken and used as template for PCR amplification to detect the mRNA expression of liver cell-related function genes. The proliferation and apoptosis related proteins such as Cyclin, Bax, Bcl-2 and so on was measured by immunohistochemistry.

Molecule	in vivo induction of differentiation of solid tumors [1]	differentiation induction effect on tumor stem cells [2]	regulation effect on in vitro differentiation of hepatocellular carcinoma cell lines [3]	apoptosis [3]	proliferation [3]
CC1=C(/C=C/C(C)=C/C=C/C(C)=C/C(=O)O)C(C)(C)CCC1 [all-trans retinoic acid]	can not effectively induce the differentiation of solid tumors	no significant differentiation induction effect	no drugs or proteins with clear differentiation therapy effects	–	–
tumor necrosis factor	can not effectively induce the differentiation of solid tumors	–	no drugs or proteins with clear differentiation therapy effects	significantly increased	reduced
arsenic trioxide	can not effectively induce the differentiation of solid tumors	no significant differentiation induction effect	no drugs or proteins with clear differentiation therapy effects	significantly increased	reduced
